Measurements: patent US9493438B2, “4,4-difluoro-piperidine-compounds” (ROTTAPHARM BIOTECH S.R.L., priority 2012, dated 2016)

Legend:
human OX1 receptors = target: T1, human OX1 receptors (Homo sapiens, UniProt O43613); test: antagonistic activity against human OX1 receptor, [Ca2+]i fluorimetry in transfected CHO cells; format: cell-based; conditions: CHO cells transfected with human recombinant OX1; activated with orexin-A 3 nM; pKb = co-logarithm of apparent dissociation constant (modified Cheng Prusoff)
T1 construct: expressed in transfected cells; host or cells: CHO cells
T1 sequence (O43613 1-425): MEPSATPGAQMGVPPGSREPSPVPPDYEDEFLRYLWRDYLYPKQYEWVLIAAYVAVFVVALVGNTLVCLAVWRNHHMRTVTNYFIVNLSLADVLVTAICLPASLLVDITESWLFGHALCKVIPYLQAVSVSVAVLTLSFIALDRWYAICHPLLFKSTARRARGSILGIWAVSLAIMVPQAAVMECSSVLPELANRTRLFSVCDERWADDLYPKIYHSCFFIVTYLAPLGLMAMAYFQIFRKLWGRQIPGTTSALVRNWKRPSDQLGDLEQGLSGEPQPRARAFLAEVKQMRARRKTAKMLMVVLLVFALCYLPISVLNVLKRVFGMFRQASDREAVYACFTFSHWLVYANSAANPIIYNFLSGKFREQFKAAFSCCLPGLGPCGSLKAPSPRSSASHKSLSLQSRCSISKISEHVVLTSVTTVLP
Method: (§1) Thus the plate was loaded with the calcium dye (Fluo-4NW/probenecid in HBSS, Hepes 20 mM, pH 7.4; Invitrogen) at 37° C. for 60 min. Afterward the temperature was equilibrated at 22° C. for 15 min and the [Ca2+]i measured directly on the plate by using a fluorescent plate reader (CeliLux Perkin Elmer).
(§2) Invention compounds were dissolved in DMSO, diluted in HBSS (DMSO, 0.3% final) and added to the wells. After 5 min CHO cells were activated with orexin-A, 3 nM while HEK-293 cells were activated with orexin-B, 10 nM. […] The antagonistic activity has been expressed as pKb (co-logarithm of the apparent dissociation constant calculated by using the modified Cheng Prusoff equation). The results are expressed as percent of control specific […] response ((measured specific response/control specific agonist response)×100) obtained in the presence of the test compounds.
(§3) The IC50 values (concentration causing a half-maximal inhibition of the control specific agonist response) were determinated by non-linear regression analysis of the concentration curves generated with mean replicate values using hill equation curve fitting. The IC50 values are obtained by the arithmetical mean of at least two experiments.

human OX2 receptors = target: T2, human OX2 receptors (Homo sapiens, UniProt O43614); test: antagonistic activity against human OX2 receptor, [Ca2+]i fluorimetry in transfected HEK-293 cells; format: cell-based; conditions: read-out: PKb OX2 (converted)
T2 construct: expressed in transfected cells; host or cells: HEK-293 cells
T2 sequence (O43614 1-444): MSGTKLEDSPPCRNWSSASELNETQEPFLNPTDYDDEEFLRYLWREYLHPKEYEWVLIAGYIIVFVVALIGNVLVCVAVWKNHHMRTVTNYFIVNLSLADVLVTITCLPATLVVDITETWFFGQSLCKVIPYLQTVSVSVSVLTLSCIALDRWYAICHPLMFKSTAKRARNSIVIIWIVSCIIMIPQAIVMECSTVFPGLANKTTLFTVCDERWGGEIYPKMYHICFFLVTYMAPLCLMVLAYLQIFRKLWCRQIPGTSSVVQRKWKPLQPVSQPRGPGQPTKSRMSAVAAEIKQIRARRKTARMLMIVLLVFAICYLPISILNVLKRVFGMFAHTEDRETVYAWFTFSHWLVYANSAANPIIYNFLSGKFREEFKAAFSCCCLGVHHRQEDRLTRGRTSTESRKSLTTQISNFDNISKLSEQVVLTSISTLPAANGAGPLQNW
Method: as §1, §2, §3

Row | Structure (SMILES) | Kb (human OX1 receptors) [nM] | Kb (human OX2 receptors) [nM]
1 | Cc1ccc(OCc2ccccc2)c(C(=O)N2CCC(F)(F)CC2CNc2ccc(C(F)(F)F)cn2)n1 (racemic) [Compound 47, (RS)(3-(benzyloxy)-6-methylpyridin-2-yl)(4,4-difluoro-2-(((5-(trifluoromethyl)pyridin-2-yl)amino)methyl)piperidin-1-yl)methanone] | 12.6 | 10000
2 | CN(C)c1ccc(-c2ccccc2)c(C(=O)N2CCC(F)(F)CC2CNc2ccc(Cl)cn2)c1 (racemic) [Compound 18, (RS)(2-(((5-chloropyridin-2-yl)amino)methyl)-4,4-difluoropiperidin-1-yl)(4-(dimethylamino)-[1,1′-biphenyl]-2-yl)methanone] | 31.6 | 1000
3 | Cc1ccc(-n2nccn2)c(C(=O)N2CCC(F)(F)CC2CNc2nc(C)cc(C)n2)c1 (single isomer, unassigned; isomer a) [Compound 4, (2-(((4,6-dimethylpyrimidin-2-yl)amino)methyl)-4,4-difluoropiperidin-1-yl)(5-methyl-2-(2H-1,2,3-triazol-2-yl)phenyl)methanone (isomer A)] | 2.51 | 200
4 | Cc1ccc(-c2ccccc2)c(C(=O)N2CCC(F)(F)CC2CNc2cnc(C(F)(F)F)cn2)n1 (racemic) [Compound 43] | 3.16 | 10000
